In assay [1] the test system is CysLT1R. As to the kind of experiment: IC50 toward CysLT1R of the benzoxazine SAR series, quoted from the literature. To be noted: CysLT1R over CysLT2R; SAR series of ref [30].
For assay [2], the system named is CysLT2R. The conditions noted are these: Supplementary Table 3 ref ref.2; cited from earlier work.
Assay [3] has as its system CysLT1R. The conditions noted are these: Supplementary Table 3 ref ref.2; cited from earlier work.
In assay [4] the test system is CysLT2R. As to the kind of experiment: IC50 toward CysLT2R of the benzoxazine SAR series, quoted from the literature. The conditions noted are these: CysLT2R over CysLT1R; SAR series of ref [30].
The next assay deals with CysLT1R wild type (Homo sapiens, UniProt Q9Y271). As to the kind of experiment: cell-based. The conditions noted are these: HEK293, read-out: % IP1 production (normalized), single replicate values, log[Pranlukast] -11 M; CysLT1-wt.

The values that follow come from article PMC6897958, “Structural basis of ligand selectivity and disease mutations in cysteinyl leukotriene receptors” (Nature Communications, 2019).

Sequence of CysLT1R wild type (Q9Y271 whole entry): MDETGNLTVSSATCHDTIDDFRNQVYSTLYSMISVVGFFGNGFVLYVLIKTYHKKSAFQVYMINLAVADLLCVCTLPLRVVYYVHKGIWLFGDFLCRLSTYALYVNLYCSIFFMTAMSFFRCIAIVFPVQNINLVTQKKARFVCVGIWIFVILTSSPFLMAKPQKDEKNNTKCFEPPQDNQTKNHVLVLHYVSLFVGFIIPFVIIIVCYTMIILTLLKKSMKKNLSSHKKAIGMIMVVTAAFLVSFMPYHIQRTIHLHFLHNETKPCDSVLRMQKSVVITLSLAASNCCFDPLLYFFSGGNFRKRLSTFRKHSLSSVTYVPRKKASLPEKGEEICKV

With `O=C(O)CCC(=O)N1C[C@@H](C(=O)O)Oc2c(NC(=O)c3ccc(OCCCCc4ccccc4)cc3)cccc21` [cpd 13e], the “selectivity for CysLT1R” value in the assay with CysLT1R [1] is listed as 1,800 fold. For the same compound, the IC50 with CysLT2R [2] was 1800 nM; in the assay with CysLT1R [3], under 1 nM.

Consider `O=C(O)CCCN1C[C@@H](C(=O)O)Oc2c(NC(=O)c3ccc(OCCCCCc4ccccc4)cc3)cccc21` [cpd 15b], for which the “selectivity for CysLT2R” value in the assay with CysLT2R [4] was determined as 200 fold. For the same compound, the IC50 in the assay on CysLT2R [2] is 0.62 nM; in the assay on CysLT1R [3] it was 120 nM.

In the case of `O=C(Nc1cccc2c(=O)cc(-c3nnn[nH]3)oc12)c1ccc(OCCCCc2ccccc2)cc1` [pranlukast], the remaining activity at 10 pM on CysLT1R wild type is 94.3%.

As a reminder, the IC50 is the concentration needed to halve the response being measured.
